Assay [1] relates to sAPPβ in Tg2576 primary cortical neurons. As to the kind of experiment: sAPPβ IP-Western in Tg2576 primary cortical neurons. The format is cell-based, mouse. As to conditions: LDN-0057228 20 μM, CNS-2 5 μM, 24 hours. On the procedure: FIG. 17A-B. LDN-0057228 and CNS-2 reduce Aβ40 and sAPPβ in Tg2576 primary neurons. Primary cortical neurons were cultured from P0 APPsw transgenic pups (Tg2576). DIV-14 neurons were treated for 24 hours with LDN-0057228 or CNS-2 at the indicated concentrations. Data from two independent experiments were pooled. A) Media was collected for Aβ40 ELISA. Raw Aβ40 values were normalized to total protein to control for variations in plating density or any cytotoxicity resulting from the compounds. B) sAPPβ in the media was immunoprecipitated with sβsw antibody and visualized on Western blot with LN27.
CNS-2 and LDN-0057228 were evaluated in the Tg2576 pup system (FIG. 17). Primary cortical neurons were harvested from P0 Tg2576 pups. Each pup yielded 3 wells on a 12-well plate at a plating density of 0.8×10^5 cells per well. After genotyping, neurons from each transgenic pup (APPsw +/−) were treated with DMSO, LDN-0057228 (20 μM), or CNS-2 (5 μM) at DIV-14 for 24 hours. Data from two independent experiments were pooled, representing primary neurons from 4 transgenic pups. LDN-0057228 (20 μM) reduced Aβ40 by 65% (p<0.001) and CNS-2 (5 μM) reduced Aβ40 by 60% (p=0.001) (FIG. 17A).

The test system of assay [2] is Aβ40 in Lenti-APPsw infected primary cortical neurons. As to the kind of experiment: Aβ40 ELISA in Lenti-APPsw infected primary cortical neurons. The conditions noted are these: 24 hours. The class given is cell-based, mouse. On the procedure: FIG. 15A-D. LDN-0057228 reduces Aβ40 and sAPPβ in primary neurons. DIV-14 primary cortical neurons from wild-type mice were incubated for 24 hours with primary culture media containing lentivirus harboring APPsw. After infection, neurons were incubated for 48 hours with 1:1 fresh to conditioned media to allow for APP expression. Neurons were then treated with LDN-0057228 at 20 μM for 24 hours in triplicate. A) Media was collected for Aβ40 ELISA. Raw Aβ40 values were normalized to APP to control for variations in lentiviral infection efficiency. B) Cell lysates were probed with 6E10 antibody to visualize the transduced full-length APP. C) sAPPβ from neuron culture media was immunoprecipitated with sβsw antibody and probed with LN27. D) Quantification of sAPPβ, normalized to APP. Data in A) and […]) represent mean+s.d. of 3 wells. Bands from B) and C) were quantified using ImageJ software.
FIG. 16A-B. CNS-2 and LDN-0057228 reduce Aβ40 in primary neurons. DIV-14 primary cortical neurons from wild-type mice were incubated for 24 hours with primary culture media containing lentivirus harboring APPsw. After infection, neurons were incubated for 48 hours with 1:1 fresh to conditioned media to allow for APP expression. Neurons were then treated for 24 hours with the indicated compound and concentration. A) Media was collected for Aβ40 ELISA. Raw Aβ40 values were normalized to APP to control for variations in lentiviral infection efficiency. B) Cell lysates were probed with 6E10 antibody to visualize the transduced full-length APP.
Lenti-APPsw infected primary cortical neurons were selected for the initial round of physiological experiments due to the relatively large batches of wild-type primary cortical neurons that were routinely harvested in the lab, the ease of lentiviral packaging. Primary cortical neurons were harvested from wild-type P0 pups using established protocols.
The Lenti-APPsw vector was co-transfected into HEK293 T cells with ViraPower packaging mix (Invitrogen) to generate the lentivirus. Lentiviral-mediated transduction of APPsw in primary neurons was performed by adding neuron primary culture media containing the lentiviral particles to wild-type DIV-14 primary neurons (FIG. 14). After 24 hours, neurons were incubated with media for 72 hours prior to collecting for Aβ40 measurement. Two batches of virus (LV-1 and LV-2) were tested, showing that there is batch-to-batch variation in the viral titer.
Using this experimental paradigm, LDN-0057228 was tested at 20 μM concentration to confirm the sAPPβ- and Aβ-lowering activity of the compound (FIG. 15). The protocol was modified slightly to allow for 24-hour compound treatment. […]
(ELISA stands for enzyme-linked immunosorbent assay.)

On to `O=C(CCc1ccccc1)NC[C@@H]1CCCN1CCOC(c1ccc(F)cc1)c1ccc(F)cc1` [CNS-2], for which the “sAPPβ as visualized by IP-Western” value in assay [1] is given as “reduced sAPPβ”. For the same compound, the “reduction in Aβ40” value in assay [2] (5 μM) was greater than 80%.
As for `Fc1ccc(C(OCCN2CCC[C@H]2CNCCc2ccccc2)c2ccc(F)cc2)cc1` [LDN-0057228], the “sAPPβ as visualized by IP-Western” value in assay [1] is on record as “reduced sAPPβ”. Besides, the “reduction in Aβ40 levels” value in assay [2] (20 μM, normalized to APP) worked out at 75%.

(Values after US20110071124A1, “Compounds that Inhibit Production of sAPPB and AB and Uses Thereof” (The Trustees of Columbia University in the City of New York, priority 2008, published 2011).)
